# Data from article PMC4856977, “Efficient enzymatic synthesis and dual-colour fluorescent labelling of DNA probes using long chain azido-dUTP and BCN dyes” (Nucleic Acids Research, 2016).
# How the values were obtained:
# Therminator II = biological target: T1, Therminator II (Thermococcus sp. 9oN-7, UniProt Q56366, D141A/E143A/Y409V/A485L, form not given); experiment: primer extension, denaturing PAGE and mass spectrometry; type: biochemical; details: templates T1 and T2, primer P3; 72°C
# T1 construct: gene pol; commercial engineered variant of 9°N DNA polymerase (New England Biolabs)
# T1 sequence (Q56366 whole entry D141A/E143A/Y409V/A485L, form open): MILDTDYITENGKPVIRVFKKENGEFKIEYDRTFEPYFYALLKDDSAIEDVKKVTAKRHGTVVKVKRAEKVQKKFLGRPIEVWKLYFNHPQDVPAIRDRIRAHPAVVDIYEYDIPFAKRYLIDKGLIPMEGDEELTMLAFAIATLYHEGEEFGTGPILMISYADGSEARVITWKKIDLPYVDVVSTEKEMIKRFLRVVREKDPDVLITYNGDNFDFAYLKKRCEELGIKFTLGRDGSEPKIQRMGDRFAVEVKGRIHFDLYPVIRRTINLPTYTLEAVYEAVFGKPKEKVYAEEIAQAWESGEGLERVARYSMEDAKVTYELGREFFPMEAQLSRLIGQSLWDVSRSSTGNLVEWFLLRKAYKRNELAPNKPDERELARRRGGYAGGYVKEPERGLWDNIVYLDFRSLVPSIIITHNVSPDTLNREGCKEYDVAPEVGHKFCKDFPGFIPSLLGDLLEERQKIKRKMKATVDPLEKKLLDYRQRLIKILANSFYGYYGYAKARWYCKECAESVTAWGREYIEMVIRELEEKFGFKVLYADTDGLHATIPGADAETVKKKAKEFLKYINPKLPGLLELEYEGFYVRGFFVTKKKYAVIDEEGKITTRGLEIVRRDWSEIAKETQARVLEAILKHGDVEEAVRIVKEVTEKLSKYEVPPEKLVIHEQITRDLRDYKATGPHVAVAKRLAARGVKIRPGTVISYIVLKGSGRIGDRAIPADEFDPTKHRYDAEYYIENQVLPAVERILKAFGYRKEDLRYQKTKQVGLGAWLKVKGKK
# Klenow large fragment = biological target: T2, Klenow large fragment (Escherichia coli, UniProt P00582); experiment: as above; type: biochemical; details: templates T1 and T2, primer P3; 37°C
# T2 construct: gene polA; large (Klenow) fragment of DNA polymerase I, without the N-terminal 5'-3' exonuclease domain; commercial (New England Biolabs)
# T2 sequence (P00582 324-928 limits assumed): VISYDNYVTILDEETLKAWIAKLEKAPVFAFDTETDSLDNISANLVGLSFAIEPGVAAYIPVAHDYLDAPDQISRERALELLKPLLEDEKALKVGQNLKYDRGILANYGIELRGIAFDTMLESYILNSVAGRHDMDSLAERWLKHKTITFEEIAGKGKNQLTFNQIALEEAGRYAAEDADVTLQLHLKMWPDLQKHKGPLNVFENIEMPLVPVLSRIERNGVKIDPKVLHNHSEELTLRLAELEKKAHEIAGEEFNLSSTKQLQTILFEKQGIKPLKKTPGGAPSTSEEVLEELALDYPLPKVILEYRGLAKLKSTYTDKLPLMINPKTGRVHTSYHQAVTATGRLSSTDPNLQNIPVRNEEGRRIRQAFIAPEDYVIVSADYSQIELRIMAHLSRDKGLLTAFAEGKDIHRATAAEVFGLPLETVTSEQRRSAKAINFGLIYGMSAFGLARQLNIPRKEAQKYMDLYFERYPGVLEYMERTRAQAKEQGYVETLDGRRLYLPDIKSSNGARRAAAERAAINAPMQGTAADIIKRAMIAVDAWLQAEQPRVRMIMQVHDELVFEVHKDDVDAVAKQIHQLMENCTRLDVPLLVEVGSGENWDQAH
smiles,measurement,setting,value
[N-]=[N+]=NCCCCCC(=O)NCC#Cc1cn([C@H]2C[C@H](O)[C@@H](COP(=O)(O)OP(=O)(O)OP(=O)(O)O)O2)c(=O)[nH]c1=O [AHP dUTP],"primer extension, denaturing PAGE and mass spectrometry",Therminator II,all four polymerases successfully incorporate AHP dUTP in the presence of templates T1 and T2
same,"primer extension, denaturing PAGE and mass spectrometry",Klenow large fragment,all four polymerases successfully incorporate AHP dUTP in the presence of templates T1 and T2
